In PubChem BioAssay (NCI):
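Cultured in 96-well plates, cells were exposed to test compound for 48 hours across five concentrations. TGI is the concentration that stops growth completely.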

Legend:
Experiment in all cases: DTP human tumour cell line panel, 48 h
[1] = system: HCT-15 colon
[2] = system: SF-268 CNS
[3] = system: HT29 colon
[4] = system: NCI/ADR-RES ovarian
[5] = system: SW-620 colon
[6] = system: OVCAR-5 ovarian
[7] = system: OVCAR-8 ovarian
[8] = system: SK-MEL-28 melanoma
[9] = system: IGROV1 ovarian
[10] = system: M14 melanoma
[11] = system: DU-145 prostate
[12] = system: MDA-MB-231 breast
[13] = system: CAKI-1 renal
[14] = system: MDA-MB-435
[15] = system: SF-295 CNS
[16] = system: SK-MEL-2 melanoma
[17] = system: SNB-75 CNS
[18] = system: MOLT-4 leukemia
[19] = system: NCI-H460 lung
[20] = system: NCI-H226 lung
[21] = system: ACHN renal
[22] = system: HCC-2998 colon
[23] = system: NCI-H522 lung
[24] = system: MDA-N
[25] = system: EKVX NSCLC
[26] = system: HS 578T breast
[27] = system: SNB-19 CNS
[28] = system: MCF7 breast
[29] = system: SN12C renal
[30] = system: MALME-3M melanoma
[31] = system: A498 renal
[32] = system: HOP-62 NSCLC
[33] = system: RXF 393 renal
[34] = system: U251 CNS
[35] = system: A549 NSCLC
[36] = system: SR leukemia
[37] = system: LOX IMVI melanoma
[38] = system: PC-3 prostate
[39] = system: SK-MEL-5 melanoma
[40] = system: OVCAR-3 ovarian
[41] = system: 786-0 renal
[42] = system: COLO 205 colon
[43] = system: K-562 leukemia
[44] = system: KM12 colon
[45] = system: SK-OV-3 ovarian
[46] = system: SF-539 CNS
[47] = system: HCT-116 colon
[48] = system: T-47D breast
[49] = system: OVCAR-4 ovarian

Measured: TGI

CSc1cc(Cl)c(C)cc1S(=O)(=O)NC(=O)NNc1ccc(Cl)cc1
> 100 µM: all assays above
